# According to the supplement of paper PMC3974653:
# Counter-ions that a name gives are not always drawn.
# Test system: MTT (mouse pheochromocytoma)
# Experiment: IC50 of cell viability (ATP content)
# Settings: (24 or 48 h)
# Procedure, shortened: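 MTT mouse pheochromocytoma cells (5 µl of 200,000 cells/ml per well, white 1536-well plates, DMEM with 5% FBS and 1% horse serum) were cultured overnight at 37°C, 5% CO2. They then received 23 nl library compound in DMSO by pintool at 8 concentrations (final 0.5 nM to 46 µM) for 24 or 48 hrs. CellTiter-Glo ATP luminescence was read after 15 minutes. Signals were normalised to positive-control (100% inhibition) and DMSO (0%) wells, and IC50 came from a four-parameter logistic fit.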
row,IC50 of cell viability,Compound
1,> 46 µM,C[C@@H](O)[C@@H]1C(=O)N2C(C(=O)O)=C([C@H]3CCCO3)SC12 (some centres not stated) [Faropenem]
2,> 46 µM,NC[C@H](O)c1ccc(O)c(O)c1 [Norepinephrine bitartrate]
3,> 46 µM,CCOC(=O)NNc1nncc2ccccc12 [Todralazine hydrochloride]
4,> 46 µM,CCC(C)CCCCC(=O)N[C@@H](CC[NH3+])C(=O)N[C@H](C(=O)N[C@@H](CC[NH3+])C(=O)N[C@H]1CCNC(=O)C([C@@H](C)O)NC(=O)[C@@H](CCN)NC(=O)[C@H](CCN)NC(=O)[C@H](CC(C)C)NC(=O)[C@@H](CC(C)C)NC(=O)[C@H](CCN)NC1=O)[C@@H](C)O (some centres not stated) [Polymyxin E1]
5,> 46 µM,CNC1C(O)C(OC2C(NC(=O)C(O)CN)CC(N)C(OC3OC(CN)C(O)C(O)C3O)C2O)OCC1(C)O (configuration not stated) [Isepamicin]
6,> 46 µM,CC/1=C(\CCN2CCC(CC2)C3=NOC4=C3C=CC(=C4)F)C(=O)N/5CCCCC5=N1 [RISPERIDONE]
7,> 46 µM,Cc1cc(C)c(NC(=O)C[C@H](CC(=O)[O-])c2cccc3ccccc23)c(C(=O)N2CCC3(CCCC3)CC2)c1.[Na+] [CR 2945]
8,> 46 µM,CCCCC/C(C=O)=C/c1ccccc1 [AMYL CINNAMAL]
9,> 46 µM,O.O=C(O)[C@H]1[C@H]2C[C@H]3c4[nH]c5ccccc5c4CCN3C[C@@H]2CC[C@@H]1O [Yohimbinic acid monohydrate]
10,> 46 µM,CCCCCC[C@@H](O)C/C=C\CCCCCCCC(=O)O [POTASSIUM RICINOLEATE]
11,> 46 µM,NC(=O)[C@H]1O[C@@H](O)[C@H](O)[C@@H](O)[C@@H]1O [GLUCURONAMIDE]
12,> 46 µM,CN1CCCC(CN2c3ccccc3Sc3ccccc32)C1 (configuration not stated) [Pecazina]
13,> 46 µM,Nc1c(/N=N/c2ccc(-c3ccc(/N=N/c4cc(S(=O)(=O)[O-])c5ccccc5c4N)cc3)cc2)cc(S(=O)(=O)[O-])c2ccccc12 [CI DIRECT RED 28]
14,> 46 µM,Cc1cc(C)cc(OCC2CNC(=O)O2)c1 (configuration not stated) [METAXALONE]
15,> 46 µM,CCCCOc1cc(C(=O)OCCN(CC)CC)ccc1N [Benoxinate hydrochloride]
16,> 46 µM,O=C(O)CP(=O)(O)O [Phosphonoacetic acid]
17,> 46 µM,CCCCCCCCCC(=O)NO [DECANOHYDROXAMIC ACID]
18,> 46 µM,CO[C@H]1C[C@@H](O[C@@H]2[C@@H](C)O[C@@H](O[C@@H]3/C(C)=C/CC4C[C@@H](C[C@]5(C=C[C@@H](C)[C@H](C6CCCCC6)O5)O4)OC(=O)[C@@H]4C=C(C)[C@@H](O)[C@H]5OC/C(=C\C=C\[C@@H]3C)[C@]54O)C[C@H]2OC)O[C@@H](C)[C@@H]1O [Doramectin]
19,> 46 µM,CC(=O)SCC(CC(=O)c1ccc(C)cc1)C(=O)O (configuration not stated) [ESONARIMOD]
20,> 46 µM,NC(COP(=O)(O)O)C(=O)O (stereo in doubt) [O-PHOSPHO-L-SERINE]
21,> 46 µM,CCOC(=O)c1cccnc1 [ETHYL NICOTINATE]
22,> 46 µM,CC1(C)SC2C(N3C(=O)C(c4ccccc4)NC3(C)C)C(=O)N2C1C(=O)[O-].[K+] (configuration not stated) [HETACILLIN POTASSIUM]
23,> 46 µM,C[C@@H]1CCC[C@H](C)N1NC(=O)c1ccc(Cl)c([S+](N)(=O)[O-])c1 [Clopamide]
24,> 46 µM,CC(=O)[C@@]1(O)CC[C@H]2[C@@H]3CC\C4=C\C(=O)CC[C@]4(C)[C@H]3CC[C@]12C [Hidroxiprogesterona]
25,> 46 µM,CN(C)c1ccc(O)c2c1CC1CC3C(N(C)C)C(=O)C(C(N)=O)C(=O)C3(O)C(=O)C1C2=O (configuration not stated) [Minocycline]
26,> 46 µM,"Nc1ccncc1N [3,4-DIAMINOPYRIDINE PHOSPHATE]"
27,> 46 µM,CN[C@@H](CC(C)C)C(=O)N[C@@H]1C(=O)N[C@H](CC(N)=O)C(=O)N[C@H]2C(=O)N[C@@H]3C(=O)N[C@H](C(=O)N[C@H](C(=O)O)c4cc(O)cc(O)c4-c4cc3ccc4O)[C@H](O)c3ccc(c(Cl)c3)Oc3cc2cc(c3O[C@@H]2O[C@@H](CO)[C@@H](O)[C@@H](O)[C@H]2O[C@H]2C[C@](C)(N)[C@H](O)[C@H](C)O2)Oc2ccc(cc2Cl)[C@@H]1O [Vancomycin hydrochloride]

row,IC50 of cell viability,Compound
1,> 46 µM,CN(C)CCOC(c1ccccc1)c1ccccc1 [Diphenhydramine]
2,> 46 µM,N=C(N)Nc1ccc(C(=O)Oc2ccc3cc(C(=N)N)ccc3c2)cc1 [NAFAMOSTAT MESILATE]
3,> 46 µM,C[C@@]12CCC[C@H]1[C@@H]1CC[C@H]3C[C@@H](O)CC[C@]3(C)[C@H]1CC2
4,> 46 µM,O=C(O)c1cc(O)c(O)c(O)c1 [Gallic acid]
5,> 46 µM,COc1ccc2c(c1)N(C[C@@H](C)CN(C)C)c1ccccc1S2 [Methotrimeprazine maleat salt]
6,> 46 µM,CC(C)CC(NC(=O)C(COC(C)(C)C)NC(=O)C(Cc1ccc(O)cc1)NC(=O)C(CO)NC(=O)C(Cc1c[nH]c2ccccc12)NC(=O)C(Cc1cnc[nH]1)NC(=O)C1CCC(=O)N1)C(=O)NC(CCCN=C(N)N)C(=O)N1CCCC1C(=O)NNC(N)=O (configuration not stated) [GOSERELIN ACETATE]
7,> 46 µM,Cl.COC1=C(C=CC=C1)N2CCN(CCCNC/3=C/C(=O)N(C)C(=O)N3C)CC2 [Urapidil hydrochloride]
8,> 46 µM,CCn1ccnc1CC1COc2ccccc2O1 (configuration not stated) [IMILOXAN]
9,> 46 µM,CCC(C(=O)NC(=O)NC(C)=O)c1ccccc1 (configuration not stated) [ACETYLPHENETURIDE (CRAMPOL)]
10,> 46 µM,OCc1ccc(Cl)cc1Cl [DICHLOROBENZYL ALCOHOL]
11,> 46 µM,NCCNCCN [Diethylenetriamine]
12,> 46 µM,NNc1nnc(Cc2ccncc2)c2ccccc12 [Picodralazine]
13,> 46 µM,CCCCN(CCCC)CC[C@H](O)c1cc2c(Cl)cc(Cl)cc2c2cc(C(F)(F)F)ccc12 [Halofantrine hydrochloride]
14,> 46 µM,CCCCC[C@H](O)/C=C\[C@H]1[C@H](C/C=C\CCCC(=O)O)[C@@H](O)C[C@H]1O.COC(N)(CO)CO [Dinoprost trometamol]
15,> 46 µM,CN(N=O)C(=O)N[C@H]1[C@H](O)[C@H](O)[C@H](CO)O[C@@H]1O [Streptozotocin]
16,> 46 µM,CC1CC(OC(=O)c2ccccc2O)CC(C)(C)C1 (configuration not stated) [Homosalate]
17,> 46 µM,O=C(O)Cc1csc(-c2ccc(Cl)cc2)n1 [Fenclozic acid]
18,> 46 µM,Clc1cccc(Cl)c1N=C1NCCN1 [CLONIDINE]
19,> 46 µM,NC(=O)c1ncn([C@@H]2O[C@H](CO)[C@@H](O)[C@H]2O)c1O [Mizoribine]
20,> 46 µM,CC1(C)OC2CC(=O)OC[C@@]23C1CC(=O)[C@]1(C)C3CC[C@@]2(C)C(c3ccoc3)OC(=O)C3O[C@@]321 (some centres not stated) [LIMONIN]
21,> 46 µM,CN(C)[C@@H]\1[C@H]2C[C@H]3\C(=C(\O)[C@@]2(O)C(=O)\C(=C1O)C(=O)NCN4CCCC4)C(=O)C5=C(C=CC=C5O)[C@]3(C)O [Solvocillin]
22,> 46 µM,O=c1[nH]c(=O)c2ccccc2o1 [Carsalam]
23,> 46 µM,CCN(CC)CCC[C@H](C)Nc1c2ccc(Cl)cc2nc2ccc(OC)cc12.Cl.Cl.O.O [Quinacrine dihydrochloride dihydrate]
24,> 46 µM,CN1C(CSCC(F)(F)F)Nc2cc(Cl)c([S+](N)(=O)[O-])cc2[S+]1(=O)[O-] (configuration not stated) [Polythiazide]
25,> 46 µM,CNC[C@H](O)[C@@H](O)[C@H](O)[C@H](O)CO [Meglumine]
26,> 46 µM,CCCOC(=O)c1ccc(N)cc1 [Risocaine]

row,Compound,IC50 of cell viability
1,O=C(O)CCCc1ccc(N(CCCl)CCCl)cc1 [CHLORAMBUCIL],> 46 µM
2,CCOc1ccccc1OCCN[C@H](C)Cc1ccc(OC)c([S+](N)(=O)[O-])c1 [TAMSULOSIN HYDROCHLORIDE],> 46 µM
3,COP(=S)(OC)Oc1ccc(Sc2ccc(OP(=S)(OC)OC)cc2)cc1 [TEMEFOSUM],> 46 µM
4,CC(=O)OC1(c2ccccc2)CCN(CCc2ccccc2)CC1 [1-(2-Phenylethyl)-4-phenyl-4-acetoxypiperidine],> 46 µM
5,C[C@]12CCC(=O)C(=O)C1CC[C@@H]1[C@@H]2CC[C@]2(C)C(=O)CC[C@@H]12 (some centres not stated) [FORMESTANUM],> 46 µM
6,Cc1nnc2n1-c1ccc(Cl)cc1C(c1ccccc1)=NC2 [alprazolam],> 46 µM
7,"COc1cc(C[C@H](C)N)c(OC)cc1C [(+)-2,5-Dimethoxy-4-methylamphetamine]",> 46 µM
8,COC(=O)\C1=C\CCN(C)C1 [ARECOLINE],> 46 µM
9,CC(C)(C)NCC(O)c1cc(Cl)c(N)c(C(F)(F)F)c1 (configuration not stated) [MABUTEROL HYDROCHLORIDE],> 46 µM
10,OC(c1ccccc1)(c1ccccc1)C1CN2CCC1CC2 (configuration not stated) [Quifenadine],> 46 µM
11,C[C@]12C/C(=C/O)C(=O)C[C@@H]1CC[C@@H]1[C@@H]2CC[C@@]2(C)[C@H]1CC[C@]2(C)O [Oxymetholone],> 46 µM
12,"CNC[C@H](O)c1ccc(O)cc1 (racemic) [(+,-)-Synephrine]",> 46 µM
13,C1C\N=C(/N1)C2COC3=C(O2)C=CC=C3 (configuration not stated) [IDAZOXAN],> 46 µM
14,CN1CCC(N(Cc2cccs2)c2ccccc2)CC1 [Thenalidine],> 46 µM
